Results as given in article PMC8632988, “Inhibition of SYK and cSrc kinases can protect bone and cartilage in preclinical models of osteoarthritis and rheumatoid arthritis” (Scientific Reports, 2021).

Experiments:
Experiment in all cases: Kinase selectivity profile assay
Type in all cases: biochemical
HIPK1 = biological target: T1, HIPK1 (Homo sapiens, UniProt Q86Z02); details: 500 nM; relative to DMSO; read-out: Residual enzymatic activity
T1 construct: purchased Reaction Biology Corporation
Method: (§1) The activity of MT-SYK-03 against cSrc kinase and selectivity profile towards other 341 kinases was determined at Reaction Biology Corporation (Malvern, PA, USA) using the standard kinase assay protocol. […]; unbound phosphate was removed by extensive washing of filters in phosphoric acid. Kinase activity data was expressed as the percent remaining kinase activity in test samples compared to vehicle (dimethyl sulfoxide) reactions based on the radioactivity of reaction products (see Table S2). Experiment was replicated twice.

SGK1 = biological target: T2, SGK1 (Homo sapiens, UniProt O00141); details: 500 nM; relative to DMSO; read-out: Residual enzymatic activity
T2 construct: purchased Reaction Biology Corporation
Method: as §1

NEK9 = biological target: T3, NEK9 (Homo sapiens, UniProt Q8TD19); details: 500 nM; relative to DMSO; read-out: Residual enzymatic activity
T3 construct: purchased Reaction Biology Corporation
Method: as §1

BRK = biological target: T4, BRK (Homo sapiens, UniProt Q13882); details: 500 nM, relative to DMSO; for remaining activity at 0.5 µM: read-out: Residual enzymatic activity
T4 construct: purchased Reaction Biology Corporation
T4 sequence (Q13882 whole entry): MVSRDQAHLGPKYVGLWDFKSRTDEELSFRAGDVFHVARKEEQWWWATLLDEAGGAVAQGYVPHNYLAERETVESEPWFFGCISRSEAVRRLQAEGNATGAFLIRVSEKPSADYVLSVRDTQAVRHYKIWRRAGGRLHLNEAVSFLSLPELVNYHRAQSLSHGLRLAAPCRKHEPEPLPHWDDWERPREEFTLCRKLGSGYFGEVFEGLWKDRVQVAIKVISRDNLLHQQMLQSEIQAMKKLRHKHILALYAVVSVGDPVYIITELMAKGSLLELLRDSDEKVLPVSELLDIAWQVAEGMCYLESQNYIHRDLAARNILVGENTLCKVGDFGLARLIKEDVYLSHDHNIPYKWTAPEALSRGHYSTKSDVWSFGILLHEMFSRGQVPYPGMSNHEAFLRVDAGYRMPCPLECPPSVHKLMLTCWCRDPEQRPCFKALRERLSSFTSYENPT
Method: as §1

PKCiota = biological target: T5, PKCiota (Homo sapiens, UniProt P41743); details: 500 nM; relative to DMSO; read-out: Residual enzymatic activity
T5 construct: purchased Reaction Biology Corporation
Method: as §1

EPHA1 = biological target: T6, EPHA1 (Homo sapiens, UniProt P21709); details: for remaining activity at 0.5 µM: 500 nM, relative to DMSO, read-out: Residual enzymatic activity
T6 construct: purchased Reaction Biology Corporation (assay service)
T6 sequence (P21709 26-976): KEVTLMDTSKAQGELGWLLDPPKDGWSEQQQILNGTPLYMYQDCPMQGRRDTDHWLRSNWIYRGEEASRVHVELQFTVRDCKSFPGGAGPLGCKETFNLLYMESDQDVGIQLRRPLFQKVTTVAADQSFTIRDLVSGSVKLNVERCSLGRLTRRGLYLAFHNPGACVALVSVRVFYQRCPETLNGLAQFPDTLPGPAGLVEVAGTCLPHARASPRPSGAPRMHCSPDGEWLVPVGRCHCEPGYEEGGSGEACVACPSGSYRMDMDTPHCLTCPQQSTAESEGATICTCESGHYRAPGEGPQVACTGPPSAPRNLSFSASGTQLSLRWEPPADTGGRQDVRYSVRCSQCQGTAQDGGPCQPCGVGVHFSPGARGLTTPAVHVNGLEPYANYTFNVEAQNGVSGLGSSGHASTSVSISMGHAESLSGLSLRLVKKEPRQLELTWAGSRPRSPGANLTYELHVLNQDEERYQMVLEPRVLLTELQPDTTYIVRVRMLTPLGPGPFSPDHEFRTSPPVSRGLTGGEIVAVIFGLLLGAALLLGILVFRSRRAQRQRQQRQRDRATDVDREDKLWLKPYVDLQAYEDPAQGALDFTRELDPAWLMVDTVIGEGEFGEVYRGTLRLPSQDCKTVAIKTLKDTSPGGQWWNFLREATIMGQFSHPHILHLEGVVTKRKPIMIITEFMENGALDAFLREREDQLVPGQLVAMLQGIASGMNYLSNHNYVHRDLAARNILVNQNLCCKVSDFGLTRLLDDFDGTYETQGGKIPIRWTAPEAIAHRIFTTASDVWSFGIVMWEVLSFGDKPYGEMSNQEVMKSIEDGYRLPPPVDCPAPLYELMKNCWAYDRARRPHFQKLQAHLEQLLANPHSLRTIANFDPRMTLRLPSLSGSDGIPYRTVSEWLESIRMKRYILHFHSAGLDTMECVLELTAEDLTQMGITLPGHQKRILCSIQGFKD
Method: as §1

PHKg2 = biological target: T7, PHKg2 (Homo sapiens, UniProt P15735); details: 500 nM; relative to DMSO; read-out: Residual enzymatic activity
T7 construct: purchased Reaction Biology Corporation
Method: as §1

PAK5 = biological target: T8, PAK5 (Homo sapiens, UniProt Q9P286); details: 500 nM; relative to DMSO; read-out: Residual enzymatic activity
T8 construct: purchased Reaction Biology Corporation
Method: as §1

IKKb/IKBKB = biological target: T9, IKKb/IKBKB (Homo sapiens, UniProt O14920); details: 500 nM; relative to DMSO; read-out: Residual enzymatic activity
T9 construct: purchased Reaction Biology Corporation
T9 sequence (O14920 whole entry): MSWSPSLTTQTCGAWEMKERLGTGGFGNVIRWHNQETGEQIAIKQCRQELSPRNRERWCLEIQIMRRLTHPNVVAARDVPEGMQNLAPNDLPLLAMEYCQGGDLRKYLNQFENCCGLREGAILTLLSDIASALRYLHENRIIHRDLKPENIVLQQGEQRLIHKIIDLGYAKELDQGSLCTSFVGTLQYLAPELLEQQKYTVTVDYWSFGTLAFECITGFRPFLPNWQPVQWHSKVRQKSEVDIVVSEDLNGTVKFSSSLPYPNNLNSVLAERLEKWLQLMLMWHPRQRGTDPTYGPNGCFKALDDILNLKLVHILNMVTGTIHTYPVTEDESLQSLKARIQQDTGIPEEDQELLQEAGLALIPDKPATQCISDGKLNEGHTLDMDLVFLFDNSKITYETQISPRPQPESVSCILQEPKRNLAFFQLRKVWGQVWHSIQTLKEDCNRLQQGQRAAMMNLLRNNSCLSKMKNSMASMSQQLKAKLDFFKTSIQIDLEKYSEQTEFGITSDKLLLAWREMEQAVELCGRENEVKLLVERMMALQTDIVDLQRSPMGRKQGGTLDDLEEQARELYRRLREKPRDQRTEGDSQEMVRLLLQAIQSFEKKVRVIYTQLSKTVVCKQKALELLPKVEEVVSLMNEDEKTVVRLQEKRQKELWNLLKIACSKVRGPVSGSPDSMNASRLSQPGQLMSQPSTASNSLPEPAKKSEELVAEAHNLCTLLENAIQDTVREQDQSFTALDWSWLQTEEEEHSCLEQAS
Method: as §1

p70S6K/RPS6KB1 = biological target: T10, p70S6K/RPS6KB1 (Homo sapiens, UniProt P23443); details: 500 nM; relative to DMSO; read-out: Residual enzymatic activity
T10 construct: purchased Reaction Biology Corporation
Method: as §1

EPHA7 = biological target: T11, EPHA7 (Homo sapiens, UniProt Q15375); details: 500 nM, relative to DMSO; for remaining activity at 0.5 µM: read-out: Residual enzymatic activity
T11 construct: purchased Reaction Biology Corporation
T11 sequence (Q15375 28-998): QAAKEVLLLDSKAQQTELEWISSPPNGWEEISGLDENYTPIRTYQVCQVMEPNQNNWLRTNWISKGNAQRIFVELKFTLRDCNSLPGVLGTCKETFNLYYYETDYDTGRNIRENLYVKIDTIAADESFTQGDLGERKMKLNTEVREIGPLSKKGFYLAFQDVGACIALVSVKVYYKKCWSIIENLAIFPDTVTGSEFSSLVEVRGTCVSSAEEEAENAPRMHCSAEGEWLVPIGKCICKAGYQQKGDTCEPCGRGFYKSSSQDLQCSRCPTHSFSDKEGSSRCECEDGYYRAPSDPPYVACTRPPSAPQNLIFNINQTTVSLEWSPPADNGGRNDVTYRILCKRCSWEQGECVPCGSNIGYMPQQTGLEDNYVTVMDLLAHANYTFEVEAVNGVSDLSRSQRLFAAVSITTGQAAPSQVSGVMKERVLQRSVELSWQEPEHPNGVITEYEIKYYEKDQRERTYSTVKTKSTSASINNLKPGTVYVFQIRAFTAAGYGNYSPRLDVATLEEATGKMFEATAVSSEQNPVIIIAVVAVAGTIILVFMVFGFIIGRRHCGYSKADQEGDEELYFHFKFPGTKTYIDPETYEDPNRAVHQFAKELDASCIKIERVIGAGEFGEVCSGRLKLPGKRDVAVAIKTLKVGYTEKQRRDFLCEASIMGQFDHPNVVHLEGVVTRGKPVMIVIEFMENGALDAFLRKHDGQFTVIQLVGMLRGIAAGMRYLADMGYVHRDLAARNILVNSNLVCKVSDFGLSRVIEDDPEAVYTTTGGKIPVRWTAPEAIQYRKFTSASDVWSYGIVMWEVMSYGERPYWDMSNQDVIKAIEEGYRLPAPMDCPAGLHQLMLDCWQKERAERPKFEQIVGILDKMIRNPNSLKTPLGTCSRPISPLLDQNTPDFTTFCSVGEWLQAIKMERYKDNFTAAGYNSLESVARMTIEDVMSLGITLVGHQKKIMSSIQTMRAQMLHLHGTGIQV
Method: as §1

CAMK4 = biological target: T12, CAMK4 (Homo sapiens, UniProt Q16566); details: 500 nM; relative to DMSO; read-out: Residual enzymatic activity
T12 construct: purchased Reaction Biology Corporation
Method: as §1

EPHB3 = biological target: T13, EPHB3 (Homo sapiens, UniProt P54753); details: 500 nM, relative to DMSO
T13 construct: purchased Reaction Biology Corporation
Method: as §1

ZAP70 = biological target: T14, ZAP70 (Homo sapiens, UniProt P43403); details: 500 nM; relative to DMSO; read-out: Residual enzymatic activity
T14 construct: purchased Reaction Biology Corporation
Method: as §1

FGFR3 = biological target: T15, FGFR3 (Homo sapiens, UniProt P22607); details: 500 nM, relative to DMSO; for remaining activity at 0.5 µM: read-out: Residual enzymatic activity
T15 construct: purchased Reaction Biology Corporation
T15 sequence (P22607 23-806): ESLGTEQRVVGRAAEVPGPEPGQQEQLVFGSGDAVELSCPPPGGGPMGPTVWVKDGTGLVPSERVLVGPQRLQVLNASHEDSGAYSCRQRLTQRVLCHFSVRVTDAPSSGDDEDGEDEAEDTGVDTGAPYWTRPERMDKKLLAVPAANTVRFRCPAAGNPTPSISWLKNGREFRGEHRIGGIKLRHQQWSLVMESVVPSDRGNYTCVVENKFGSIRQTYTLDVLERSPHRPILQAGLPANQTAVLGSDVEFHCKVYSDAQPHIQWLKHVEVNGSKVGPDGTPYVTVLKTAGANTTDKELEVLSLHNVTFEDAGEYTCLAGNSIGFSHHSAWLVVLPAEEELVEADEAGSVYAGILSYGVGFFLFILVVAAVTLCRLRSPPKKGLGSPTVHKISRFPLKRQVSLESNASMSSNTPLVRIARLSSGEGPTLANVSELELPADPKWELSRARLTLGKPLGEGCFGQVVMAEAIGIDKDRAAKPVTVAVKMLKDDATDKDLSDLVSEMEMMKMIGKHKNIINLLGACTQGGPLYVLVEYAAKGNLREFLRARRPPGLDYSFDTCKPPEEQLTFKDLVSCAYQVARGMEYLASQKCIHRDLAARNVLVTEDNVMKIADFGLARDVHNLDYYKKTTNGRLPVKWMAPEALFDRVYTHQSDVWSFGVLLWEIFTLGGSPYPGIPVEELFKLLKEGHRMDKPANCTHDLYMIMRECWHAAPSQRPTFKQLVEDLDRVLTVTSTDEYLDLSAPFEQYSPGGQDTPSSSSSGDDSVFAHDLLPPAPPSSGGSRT
Method: as §1

HIPK4 = biological target: T16, HIPK4 (Homo sapiens, UniProt Q8NE63); details: 500 nM; relative to DMSO; read-out: Residual enzymatic activity
T16 construct: purchased Reaction Biology Corporation
Method: as §1

NEK6 = biological target: T17, NEK6 (Homo sapiens, UniProt Q9HC98); details: 500 nM; relative to DMSO; read-out: Residual enzymatic activity
T17 construct: purchased Reaction Biology Corporation
Method: as §1

PKCtheta = biological target: T18, PKCtheta (Homo sapiens, UniProt Q04759); details: 500 nM; relative to DMSO; read-out: Residual enzymatic activity
T18 construct: purchased Reaction Biology Corporation
Method: as §1

CDK16/cyclin Y = biological target: T19, CDK16/cyclin Y (Homo sapiens, UniProt Q00536); details: 500 nM; relative to DMSO; read-out: Residual enzymatic activity
T19 construct: purchased Reaction Biology Corporation
T19 sequence (Q00536 whole entry): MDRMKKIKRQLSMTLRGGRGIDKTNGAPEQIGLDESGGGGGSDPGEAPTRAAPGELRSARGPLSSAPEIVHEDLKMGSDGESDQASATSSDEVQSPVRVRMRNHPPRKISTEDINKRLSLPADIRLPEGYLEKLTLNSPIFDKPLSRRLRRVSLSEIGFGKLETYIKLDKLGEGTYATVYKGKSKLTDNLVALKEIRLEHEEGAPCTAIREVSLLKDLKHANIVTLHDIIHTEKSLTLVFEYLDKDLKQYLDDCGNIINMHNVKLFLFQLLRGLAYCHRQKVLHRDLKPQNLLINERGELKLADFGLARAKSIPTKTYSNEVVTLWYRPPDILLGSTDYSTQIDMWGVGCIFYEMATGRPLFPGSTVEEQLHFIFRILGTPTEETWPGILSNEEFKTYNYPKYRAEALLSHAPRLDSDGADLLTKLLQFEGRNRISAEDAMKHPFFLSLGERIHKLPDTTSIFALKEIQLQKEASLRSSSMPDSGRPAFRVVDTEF
T19 sequence (Q8ND76 whole entry partner): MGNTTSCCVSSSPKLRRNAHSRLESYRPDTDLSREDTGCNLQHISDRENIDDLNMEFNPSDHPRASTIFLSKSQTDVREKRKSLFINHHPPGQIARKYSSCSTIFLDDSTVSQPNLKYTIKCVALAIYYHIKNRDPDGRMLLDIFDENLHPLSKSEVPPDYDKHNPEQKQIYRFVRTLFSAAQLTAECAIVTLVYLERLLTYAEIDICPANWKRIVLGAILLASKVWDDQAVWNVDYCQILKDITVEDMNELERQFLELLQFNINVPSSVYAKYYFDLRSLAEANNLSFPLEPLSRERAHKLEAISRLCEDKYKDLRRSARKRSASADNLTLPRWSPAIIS
Method: as §1

ROCK2 = biological target: T20, ROCK2 (Homo sapiens, UniProt O75116); details: 500 nM; relative to DMSO; read-out: Residual enzymatic activity
T20 construct: purchased Reaction Biology Corporation
Method: as §1

DYRK2 = biological target: T21, DYRK2 (Homo sapiens, UniProt Q92630); details: 500 nM; relative to DMSO; read-out: Residual enzymatic activity
T21 construct: purchased Reaction Biology Corporation
Method: as §1

PKCb2 = biological target: T22, PKCb2 (Homo sapiens, UniProt P05771); details: 500 nM; relative to DMSO; read-out: Residual enzymatic activity
T22 construct: purchased Reaction Biology Corporation
Method: as §1

IR = biological target: T23, IR (Homo sapiens, UniProt P06213); details: 500 nM; relative to DMSO; read-out: Residual enzymatic activity
T23 construct: purchased Reaction Biology Corporation
Method: as §1

DDR1 = biological target: T24, DDR1 (Homo sapiens, UniProt Q08345); details: for remaining activity at 0.5 µM: 500 nM, relative to DMSO, read-out: Residual enzymatic activity
T24 construct: purchased Reaction Biology Corporation (assay service)
T24 sequence (Q08345 19-913): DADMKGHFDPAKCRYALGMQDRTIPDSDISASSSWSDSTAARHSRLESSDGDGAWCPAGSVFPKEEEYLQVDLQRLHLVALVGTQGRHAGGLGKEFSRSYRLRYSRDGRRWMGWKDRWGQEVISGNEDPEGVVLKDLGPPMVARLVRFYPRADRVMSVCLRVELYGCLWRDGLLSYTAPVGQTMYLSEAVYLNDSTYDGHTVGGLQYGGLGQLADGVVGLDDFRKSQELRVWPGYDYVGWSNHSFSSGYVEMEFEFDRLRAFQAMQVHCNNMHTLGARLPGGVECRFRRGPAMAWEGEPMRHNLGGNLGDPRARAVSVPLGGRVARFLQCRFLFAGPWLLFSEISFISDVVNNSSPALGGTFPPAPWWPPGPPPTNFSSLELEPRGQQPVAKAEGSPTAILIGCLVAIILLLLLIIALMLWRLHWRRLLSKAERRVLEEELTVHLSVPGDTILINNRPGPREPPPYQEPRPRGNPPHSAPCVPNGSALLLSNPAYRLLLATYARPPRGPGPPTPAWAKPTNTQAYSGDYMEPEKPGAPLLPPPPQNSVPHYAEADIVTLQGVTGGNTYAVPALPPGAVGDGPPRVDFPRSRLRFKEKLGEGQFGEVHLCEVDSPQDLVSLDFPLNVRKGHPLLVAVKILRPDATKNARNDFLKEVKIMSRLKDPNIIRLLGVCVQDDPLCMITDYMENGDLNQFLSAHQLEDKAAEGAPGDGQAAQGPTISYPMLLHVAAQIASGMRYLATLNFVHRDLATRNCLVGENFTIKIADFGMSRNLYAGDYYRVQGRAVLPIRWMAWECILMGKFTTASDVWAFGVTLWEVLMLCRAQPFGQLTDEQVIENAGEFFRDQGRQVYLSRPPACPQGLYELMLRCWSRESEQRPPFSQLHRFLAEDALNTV
Method: as §1

CAMK1b = biological target: T25, CAMK1b (Homo sapiens, UniProt Q6P2M8); details: 500 nM; relative to DMSO; read-out: Residual enzymatic activity
T25 construct: purchased Reaction Biology Corporation
T25 sequence (Q6P2M8 whole entry): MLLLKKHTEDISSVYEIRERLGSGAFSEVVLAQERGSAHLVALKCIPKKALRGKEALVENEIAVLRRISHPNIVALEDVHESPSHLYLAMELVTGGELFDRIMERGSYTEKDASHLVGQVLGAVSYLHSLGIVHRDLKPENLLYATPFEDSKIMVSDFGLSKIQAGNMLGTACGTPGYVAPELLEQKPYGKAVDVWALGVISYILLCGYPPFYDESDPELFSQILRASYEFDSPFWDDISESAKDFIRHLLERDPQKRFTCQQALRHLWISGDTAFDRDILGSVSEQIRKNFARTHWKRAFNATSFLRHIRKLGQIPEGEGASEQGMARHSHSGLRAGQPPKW
Method: as §1

NEK7 = biological target: T26, NEK7 (Homo sapiens, UniProt Q8TDX7); details: 500 nM; relative to DMSO; read-out: Residual enzymatic activity
T26 construct: purchased Reaction Biology Corporation
Method: as §1

CTK/MATK = biological target: T27, CTK/MATK (Homo sapiens, UniProt P42679); details: 500 nM; relative to DMSO; read-out: Residual enzymatic activity
T27 construct: purchased Reaction Biology Corporation
Method: as §1

BRAF = biological target: T28, BRAF (Homo sapiens, UniProt P15056); details: 500 nM; relative to DMSO; read-out: Residual enzymatic activity
T28 construct: purchased Reaction Biology Corporation
Method: as §1

[1] = 10-dose mode, threefold serial dilution from 10 μM

With `COc1cc(Nc2ncnc(Nc3cc4c(cn3)NC(=O)C(C)(C)O4)n2)cc(OC)c1OC` [MT-SYK-03] the remaining activity at 0.5 µM (HIPK1) was 97.4%, the remaining activity at 0.5 µM (SGK1) was 108% and the remaining activity at 0.5 µM (NEK9) was 55.7%. The Residual enzymatic activity (BRK) was 54.2%, the remaining activity at 0.5 µM (BRK) was greater than 54% and the remaining activity at 0.5 µM (PKCiota) was 102%. The remaining activity at 0.5 µM (EPHA1) was 48.3%, the IC50 (EPHA1; [1]) was 457 nM and the remaining activity at 0.5 µM (PHKg2) was 102%. The remaining activity at 0.5 µM (PAK5) was 98.5%, the remaining activity at 0.5 µM (IKKb/IKBKB) was 94% and the remaining activity at 0.5 µM (p70S6K/RPS6KB1) was 98.3%. It also gave a Residual enzymatic activity (EPHA7) of 58.4%, a remaining activity at 0.5 µM (EPHA7) greater than 54% and a remaining activity at 0.5 µM (CAMK4) of 111%. For the same molecule, the Residual enzymatic activity (EPHB3) was 94.2%, the remaining activity at 0.5 µM (ZAP70) was 93.4% and the Residual enzymatic activity (FGFR3) was 57.2%. It also gave a remaining activity at 0.5 µM (FGFR3) greater than 54%, a remaining activity at 0.5 µM (HIPK4) of 112% and a remaining activity at 0.5 µM (NEK6) of 103%. For the same molecule, the remaining activity at 0.5 µM (PKCtheta) was 102%, the remaining activity at 0.5 µM (CDK16/cyclin Y) was 95.8% and the remaining activity at 0.5 µM (ROCK2) was 91.1%. It also gave a remaining activity at 0.5 µM (DYRK2) of 104%, a remaining activity at 0.5 µM (PKCb2) of 87.7% and a remaining activity at 0.5 µM (IR) of 94.4%. For the same molecule, the remaining activity at 0.5 µM (DDR1) was 4.7%, the IC50 (DDR1; [1]) was 1.8 nM and the inhibition at 0.5 µM (DDR1; read-out: Inhibition at 500 nM) was greater than 90%. The remaining activity at 0.5 µM (CAMK1b) was 106%, the remaining activity at 0.5 µM (NEK7) was 95.9% and the remaining activity at 0.5 µM (CTK/MATK) was 96.6%. The remaining activity at 0.5 µM (BRAF) was 86.7%.
`COc1cc(Nc2ncc(F)c(Nc3ccc4c(n3)NC(=O)C(C)(C)O4)n2)cc(OC)c1OC` [R406, reference compound] was tested, and the remaining activity at 0.5 µM (HIPK1) was 90.8%, the remaining activity at 0.5 µM (SGK1) was 109% and the remaining activity at 0.5 µM (NEK9) was 2.5%. The remaining activity at 0.5 µM (BRK) was 27.6%, the remaining activity at 0.5 µM (PKCiota) was 103% and the remaining activity at 0.5 µM (EPHA1) was 25.4%. For the same molecule, the remaining activity at 0.5 µM (PHKg2) was 93.4%, the remaining activity at 0.5 µM (PAK5) was 49% and the remaining activity at 0.5 µM (IKKb/IKBKB) was 53%. It also gave a remaining activity at 0.5 µM (p70S6K/RPS6KB1) of 49.1%, a remaining activity at 0.5 µM (EPHA7) of 10.5% and a remaining activity at 0.5 µM (CAMK4) of 120%. The remaining activity at 0.5 µM (EPHB3; read-out: Residual enzymatic activity) was 84.4%, the remaining activity at 0.5 µM (ZAP70) was 43.5% and the remaining activity at 0.5 µM (FGFR3) was 17.4%. The remaining activity at 0.5 µM (HIPK4) was 92.9%, the remaining activity at 0.5 µM (NEK6) was 70.5% and the remaining activity at 0.5 µM (PKCtheta) was 99.5%. For the same molecule, the remaining activity at 0.5 µM (CDK16/cyclin Y) was 63.3%, the remaining activity at 0.5 µM (ROCK2) was 77.6% and the remaining activity at 0.5 µM (DYRK2) was 64.1%. For the same molecule, the remaining activity at 0.5 µM (PKCb2) was 30.7%, the remaining activity at 0.5 µM (IR) was 77.5% and the remaining activity at 0.5 µM (DDR1) was 1%. The remaining activity at 0.5 µM (CAMK1b) was 108%, the remaining activity at 0.5 µM (NEK7) was 62.3% and the remaining activity at 0.5 µM (CTK/MATK) was 120%. For the same molecule, the remaining activity at 0.5 µM (BRAF) was 95.9%.
